This is an account of results in paper PMC4438668, “Quantitative High-Throughput Identification of Drugs as Modulators of Human Constitutive Androstane Receptor” (Scientific Reports, 2015).

Broadly, the IC50 is the concentration needed to halve the response being measured. One may read the EC50 as the concentration that produces a half-maximal response.

The structures appear in SMILES notation.

In data set [1] the test system is HepG2-CYP2B6-hCAR cells. Briefly: Cell viability assay (CellTiter-Glo ATP quantitation). The format is cell-based, human. Also on record: key to Cytotoxicity (activity call): Inactive: considered inactive if efficacy is less than 30%. As to conditions: 24 h. The procedure:
The potential cytotoxicity of the NPC compounds in HepG2-CYP2B6-hCAR cells was measured using a luciferase-coupled ATP quantitation assay (CellTiter-Glo viability assay, Promega). The change of intracellular ATP content indicates the number of metabolically competent cells. The cells were seeded at 2,500 cells/5 μl in 1536-well plates and were exposed to each test compound at concentrations and treatment duration as previously mentioned. The assay plates were incubated for 24 h at 37 °C, followed by the addition of 4 μl/well of CellTiter-Glo reagent. After 30 min incubation at RT, the luminescence intensity of the plates was measured using a ViewLux plate reader.
Background: Cellular ATP, detected with luciferase, serves as a proxy for viable cell number.

For data set [2], the system named is CAR, CYP2B6, or CYP3A4. As to conditions: previously known; reference not given; cited from earlier work.
The target of data set [3] is T1, human CAR (hCAR) (Homo sapiens, UniProt Q14994).
T1 sequence (Q14994 1-348 isoform Q14994-2): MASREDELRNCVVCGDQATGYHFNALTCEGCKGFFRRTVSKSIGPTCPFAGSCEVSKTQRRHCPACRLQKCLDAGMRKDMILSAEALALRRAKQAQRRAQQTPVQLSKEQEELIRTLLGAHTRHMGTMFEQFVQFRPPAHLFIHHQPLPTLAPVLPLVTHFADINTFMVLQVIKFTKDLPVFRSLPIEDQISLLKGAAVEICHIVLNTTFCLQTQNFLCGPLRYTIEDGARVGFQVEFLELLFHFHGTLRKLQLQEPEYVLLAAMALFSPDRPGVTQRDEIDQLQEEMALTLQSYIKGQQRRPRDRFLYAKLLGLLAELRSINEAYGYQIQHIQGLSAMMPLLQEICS
Briefly: hCAR luciferase reporter qHTS, antagonist mode (HepG2-CYP2B6-hCAR cells, CITCO co-treatment).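 For all read-outs here: stable HepG2 line carrying hCAR plus a CYP2B6 promoter (PBREM/XREM) luciferase reporter, 1536-well format, 24 h compound exposure at 37 °C, then luminescence read with ONE-Glo.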 As to conditions: for IC50 / Follow-up Confirmation Efficacy / Primary Screen Efficacy: antagonist mode; for Follow-up Confirmation Efficacy / Primary Screen Efficacy: relative to PK11195 (100%); for Identified as hCAR antagonist/deactivator in the qHTS: primary qHTS of 2816 NPC compounds. (In general: In a reporter assay the amount or activity of a reporter protein is the signal.)
Procedure: The pEF6/V5-hCAR expression plasmid and the pGL4.17[luc2/Neo]-CYP2B6-2.2kb construct containing both the PBREM and XREM[40], were co-transfected in HepG2 cells using lipofectamine 2000 reagents (Life Technologies) following the manufacturer’s instruction. Dulbecco’s Modified Eagle Medium (DMEM) containing 10% FBS, 100 U/ml penicillin, 100 μg/ml streptomycin, G418 (0.6-1 mg/ml) and blasticidin (10 μg/ml) were used for the selection of colonies containing a mixed population of drug resistant cells. Subsequently, these cells were transferred to collagen-coated 48-well plates and continually cultured in the same media. Single colony containing both plasmids was selected and functionally verified.
The generated stable cell line, namely HepG2-CYP2B6-hCAR, was used to identify hCAR modulators in a qHTS platform. Assays were run in both agonist and antagonist modes. In brief, HepG2-CYP2B6-hCAR cells were dispensed at 2,500 cells/well in 1,536-well plates (Greiner Bio-One North America, Monroe, NC) using a Multidrop Combi (Thermo Fisher Scientific Inc., Waltham, MA). […] The assays were incubated at 37 °C for 24 h followed by the addition of 4 μl of the ONE-Glo luciferase reagent (Promega, Madision, WI). The assay plates were incubated at room temperature for 20 min and luminescence intensity was quantified using a ViewLux plate reader (PerkinElmer, Shelton, CT).
(§1) Concentration-response titration points for each compound were then fitted to the Hill equation, yielding half-maximal inhibition (IC50) or activation (EC50) and maximal response (efficacy) values. Compounds from the primary qHTS screen were classified into four major curve classes according to quality of curve fit, potency and efficacy. Class 1.1, 1.2, 2.1, and 2.2 curves were high-quality and thus high-confidence concentration-response curves (CRCs). […] All other curve classes (including those curves with single point activity) were deemed inconclusive. […] Follow-up studies were performed using a new aliquot of samples to confirm sample integrity and assay reproducibility.
All of these compounds were retested in both HepG2-CYP2B6-hCAR and cell viability assays.

The target in data set [4] is T1, human CAR (hCAR). Briefly: hCAR luciferase reporter qHTS, agonist mode (HepG2-CYP2B6-hCAR cells, PK11195 co-treatment). As to conditions: for EC50 / Follow-up Confirmation Efficacy / Primary Screen Efficacy: agonist mode; for Follow-up Confirmation Efficacy: relative to CITCO (100%); for Primary Screen Efficacy: relative to CITCO Emax (100%); for Identified as hCAR agonist in the qHTS: primary qHTS of 2816 NPC compounds.
Procedure: The generated stable cell line, namely HepG2-CYP2B6-hCAR, was used to identify hCAR modulators in a qHTS platform. Assays were run in both agonist and antagonist modes. In brief, HepG2-CYP2B6-hCAR cells were dispensed at 2,500 cells/well in 1,536-well plates (Greiner Bio-One North America, Monroe, NC) using a Multidrop Combi (Thermo Fisher Scientific Inc., Waltham, MA). […] Each NPC compound was tested at 8 concentrations ranging from 0.6 nM to 38.3 μM. The assays were incubated at 37 °C for 24 h followed by the addition of 4 μl of the ONE-Glo luciferase reagent (Promega, Madision, WI). The assay plates were incubated at room temperature for 20 min and luminescence intensity was quantified using a ViewLux plate reader (PerkinElmer, Shelton, CT).
as §1
These compounds were prepared in 1536-well compound plates at 11-point 3-fold dilution titrations in DMSO, with final concentrations ranging from 0.6 nM to 38.3 μM. All of these compounds were retested in both HepG2-CYP2B6-hCAR and cell viability assays.

The subject of data set [5] is CYP3A4. Briefly: CYP3A4 mRNA expression in HPH (real-time PCR). As to conditions: HPH, 24 h, vs vehicle control (0.1% DMSO). The data set is classed as cell-based, human. (In qPCR the cycle at which signal appears reflects the starting amount.)
Procedure: (§2) HPH were isolated from human liver specimens by a modification of the two-step collagenase digestion method as described previously[43] or obtained from Bioreclamation In Vitro Technologies (Baltimore, MD). Fresh HPH were seeded at 1.5 × 10^6, 7.5 × 10^5 or 4.7 × 10^4 cells/well in 6-well, 12-well, or 96-well collagen coated plates, respectively. Hepatocytes were cultured for 36 h at 37 °C before treatment with specified compounds for another 24 or 72 h for detection of mRNA or protein expression in the 6-well and 12-well plates.
(§3) Total RNA was isolated from treated hepatocytes using the TRIzol® reagent and reverse transcribed using a High Capacity cDNA Archive Kit (Applied Biosystems, Foster City, CA) following the manufacturers’ instructions. CYP2B6 and CYP3A4 mRNA expression were normalized against that of GAPDH. Real-time PCR assays were performed in 96-well optical plates on an ABI Prism 7000 Sequence Detection System with SYBR Green PCR Master Mix. […] Induction values were calculated using the equation: Fold = 2ΔΔCt, where ΔCt represents the differences in cycle threshold numbers between CYP2B6 or CYP3A4 and GAPDH, and ΔΔCt represents the relative change in these differences between control and treatment groups.
Data set [6] relates to CYP2B6. Briefly: CYP2B6 mRNA expression in HPH (real-time PCR). As to conditions: HPH, 24 h, vs vehicle control (0.1% DMSO).
Procedure: as §2, §3
The target of data set [7] is T2, hPXR (Homo sapiens, UniProt O75469).
T2 construct: expressed in transfected cells; host or cells: HepG2 (transient transfection)
T2 sequence (O75469 1-434): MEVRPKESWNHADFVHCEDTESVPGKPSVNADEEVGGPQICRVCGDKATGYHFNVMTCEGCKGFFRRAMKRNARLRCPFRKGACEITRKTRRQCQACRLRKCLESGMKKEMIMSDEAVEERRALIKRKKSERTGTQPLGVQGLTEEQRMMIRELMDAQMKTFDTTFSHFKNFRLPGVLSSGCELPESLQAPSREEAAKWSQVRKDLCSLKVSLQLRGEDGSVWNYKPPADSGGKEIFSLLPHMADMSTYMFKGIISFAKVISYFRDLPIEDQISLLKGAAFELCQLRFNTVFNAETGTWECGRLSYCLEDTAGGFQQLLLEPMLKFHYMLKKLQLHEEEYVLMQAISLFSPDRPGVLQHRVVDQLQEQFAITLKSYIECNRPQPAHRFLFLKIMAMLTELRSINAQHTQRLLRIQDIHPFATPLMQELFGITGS
Briefly: Transient hPXR luciferase assay in HepG2 cells (CYP2B6-2.2 kb reporter). The data set is classed as cell-based. As to conditions: HepG2, 24 h, in the presence or absence of rifampicin (10 μM). As to the method:
HepG2 cells cultured in a 24-well plate were co-transfected with the CYP2B6-2.2 kb reporter and hPXR expression vectors using a Lipofectamine® 2000 Transfection Kit (Life Technologies) following the manufacturer’s instruction. […] Cell lysates were assayed for firefly luciferase activities normalized against the activities of co-transfected Renilla luciferase using a Dual-Luciferase Kit (Promega). Data were represented as mean±SD of three individual transfections.

The mark [8] stands for this setting: Follow-up Confirmation Potency (IC50), follow-up cherry-pick, 11-point titration.
Setting [9] is: Primary Screen Potency (IC50), primary qHTS, 0.1 μM CITCO, 24 h.
The mark [10] stands for this setting: Follow-up Confirmation Potency (EC50), follow-up cherry-pick, 11-point titration.
The mark [11] stands for this setting: Primary Screen Potency (EC50), primary qHTS, 2.5 μM PK11195, 24 h.

With `COc1cc(Nc2c(C#N)cnc3cc(OCCCN4CCN(C)CC4)c(OC)cc23)c(Cl)cc1Cl` [Bosutinib], in data set [1], the “Cytotoxicity (activity call)” value was “Inactive”.

For the molecule `CO[C@@]12[C@H](COC(N)=O)C3=C(C(=O)C(C)=C(N)C3=O)N1C[C@@H]1N[C@@H]12` [Mitomycin C], the “Cytotoxicity (activity call)” value in data set [1] is on record as “Inactive”. Moreover, the “Known modulator of CAR, CYP2B6, or CYP3A4?” value (shortened to “Known modulator of CAR”) in data set [2] was “PXR deactivator”. Besides, the IC50 in data set [3] (setting [8]) was 0.75 µM; in data set [3] (setting [9]), 0.43 µM. For the same molecule, the “Follow-up Confirmation Efficacy” value in data set [3] (follow-up cherry-pick) is given as -110%. The “Primary Screen Efficacy” value in data set [3] (primary qHTS) is reported as -91%. The “Identified as hCAR antagonist/deactivator in the qHTS” value in data set [3] is given as “antagonist of hCAR”.

On to `CCCCNc1c(C(=O)OCC)c(C)nc2c1cnn2CC` [Tracazolate], for which the EC50 in data set [4] (setting [10]) came out at 24 µM; in data set [4] (setting [11]) it was 17 µM. For the same molecule, the “Follow-up Confirmation Efficacy” value in data set [4] (follow-up cherry-pick) was determined as 101%. Besides, the “Primary Screen Efficacy” value in data set [4] (primary qHTS) came to 27%.

Turning to `CCO[C@H]1O[C@@H]2O[C@@]3(C)CC[C@H]4[C@H](C)CC[C@@H]([C@H]1C)[C@@]24OO3` [Artemotil], the “Effect on CYP3A4 mRNA expression” value in data set [5] is given as “markedly enhanced”. Besides, in data set [2], the “Known modulator of CAR” value was “Activates CAR and Induces CYP2B6”. In addition, the “Effect on CYP2B6 mRNA expression” value in data set [6] is “significantly induced”. The EC50 was determined as 5 µM in data set [4] (setting [10]) and 2.1 µM in data set [4] (setting [11]). Also, in data set [4] (follow-up cherry-pick), the “Follow-up Confirmation Efficacy” value was 71%. In addition, the “Primary Screen Efficacy” value in data set [4] (primary qHTS) worked out at 33%.

Consider `O=C(Nc1ccc(Cl)cc1)Nc1ccc(Cl)c(Cl)c1` [triclocarban], for which the “Identified as hCAR agonist in the qHTS” value in data set [4] was “agonists identified”.

Consider `Clc1ccccc1C(c1ccccc1)(c1ccccc1)n1ccnc1` [clotrimazole], for which the “Identified as hCAR antagonist/deactivator in the qHTS” value in data set [3] is given as “recognized in the current study”.

As for `Nc1ncnc2c1ncn2CCOCP(=O)(O)O` [Adefovir], the “Cytotoxicity (activity call)” value in data set [1] is “Inactive”. For the same molecule, the “Effect on CYP3A4 mRNA expression” value in data set [5] is “negligible effect”. Further, the “Effect on basal and RIF-induced PXR activity” value in data set [7] is recorded as “no effects on either basal or RIF-induced hPXR activation”. Besides, in data set [2], the “Known modulator of CAR” value is recorded as “CYP3A4 inhibitor”. Also, the IC50 was 0.77 µM in data set [3] (setting [8]) and 0.76 µM in data set [3] (setting [9]). The “Follow-up Confirmation Efficacy” value in data set [3] (follow-up cherry-pick) is listed as -87%. The “Primary Screen Efficacy” value in data set [3] (primary qHTS) is listed as -102%.

As for `CC[C@@]1(O)C(=O)OCc2c1cc1n(c2=O)Cc2cc3c(CN(C)C)c(O)ccc3nc2-1` [Topotecan], in data set [1], the “Cytotoxicity (activity call)” value is on record as “Inactive”. Besides, in data set [5], the “Effect on CYP3A4 mRNA expression” value is recorded as “negligible effect”. Also, the IC50 in data set [3] (setting [8]) was 0.36 µM; in data set [3] (setting [9]) it was 0.06 µM. Further, the “Follow-up Confirmation Efficacy” value in data set [3] (follow-up cherry-pick) was -109%. In addition, the “Primary Screen Efficacy” value in data set [3] (primary qHTS) is given as -94%.

Regarding `Cc1cccc(N(C)C(=S)Oc2ccc3ccccc3c2)c1` [tolnaftate], in data set [4], the “Identified as hCAR agonist in the qHTS” value is reported as “agonists identified”.

Take `O=c1[nH]c(=O)n([C@H]2C[C@H](O)[C@@H](CO)O2)cc1C(F)(F)F` [Trifluridine]: the “Cytotoxicity (activity call)” value in data set [1] is listed as “Inactive”. Further, the “Effect on basal and RIF-induced PXR activity” value in data set [7] is on record as “no effects on either basal or RIF-induced hPXR activation”. Further, the “Effect on CYP2B6 mRNA expression” value in data set [6] was “moderately induced”. Further, the IC50 in data set [3] (setting [8]) turned out to be 4.5 µM; in data set [3] (setting [9]), 6.7 µM. Also, in data set [3] (follow-up cherry-pick), the “Follow-up Confirmation Efficacy” value is reported as -73%.
